Measured values from ChEMBL document CHEMBL1909294, “Translating clinical findings into knowledge in drug safety evaluation--drug induced liver injury prediction system (DILIps)” (PLoS Comput Biol, 2011).

Assays:
[1] = tested on: Hepatotoxicity;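 for HepSE bilirubinemia: bilirubinemia hepatic side effect score drawn from the DILIps training data, a prediction system for drug-induced liver injury; call rule not given here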;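 for HepSE cholecystitis: Cholecystitis-related hepatic side effect score drawn from the DILIps (drug-induced liver injury prediction) training data set; call rule not given here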;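 for HepSE cholelithiasis: hepatic side effect score for cholelithiasis, drawn from the DILIps training data for predicting drug-induced liver injury; call rule not given here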;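 for HepSE cirrhosis: cirrhosis hepatic side effect score taken from the DILIps (drug-induced liver injury prediction) training set; call rule not given here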;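 for HepSE elevated liver function tests: hepatic side effect score for raised liver function tests, as recorded in the DILIps training set used for predicting drug-induced liver injury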; for HepSE hepatic failure: call rule not given here;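 for HepSE hepatomegaly: hepatic side effect score for hepatomegaly, taken from the training set of the DILIps drug-induced liver injury prediction system; call rule not given here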
[2] = tested on: Hepatotoxicity; remark: listed apart in the source;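 for HepSE bilirubinemia: bilirubinemia hepatic side effect score drawn from the DILIps training data, a prediction system for drug-induced liver injury; call rule not given here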;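 for HepSE cholecystitis: Cholecystitis-related hepatic side effect score drawn from the DILIps (drug-induced liver injury prediction) training data set; call rule not given here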;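 for HepSE cholelithiasis: hepatic side effect score for cholelithiasis, drawn from the DILIps training data for predicting drug-induced liver injury; call rule not given here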;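 for HepSE cirrhosis: cirrhosis hepatic side effect score taken from the DILIps (drug-induced liver injury prediction) training set; call rule not given here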;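 for HepSE elevated liver function tests: hepatic side effect score for raised liver function tests, as recorded in the DILIps training set used for predicting drug-induced liver injury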; for HepSE hepatic failure: call rule not given here
[3] = tested on: Hepatotoxicity; remark: listed apart in the source;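 for HepSE bilirubinemia: bilirubinemia hepatic side effect score drawn from the DILIps training data, a prediction system for drug-induced liver injury; call rule not given here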;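 for HepSE cholecystitis: Cholecystitis-related hepatic side effect score drawn from the DILIps (drug-induced liver injury prediction) training data set; call rule not given here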;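 for HepSE cholelithiasis: hepatic side effect score for cholelithiasis, drawn from the DILIps training data for predicting drug-induced liver injury; call rule not given here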;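 for HepSE cirrhosis: cirrhosis hepatic side effect score taken from the DILIps (drug-induced liver injury prediction) training set; call rule not given here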;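 for HepSE elevated liver function tests: hepatic side effect score for raised liver function tests, as recorded in the DILIps training set used for predicting drug-induced liver injury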; for HepSE hepatic failure: call rule not given here
[4] = tested on: Hepatotoxicity; remark: listed apart in the source;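 for HepSE bilirubinemia: bilirubinemia hepatic side effect score drawn from the DILIps training data, a prediction system for drug-induced liver injury; call rule not given here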;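 for HepSE cholecystitis: Cholecystitis-related hepatic side effect score drawn from the DILIps (drug-induced liver injury prediction) training data set; call rule not given here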;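 for HepSE cholelithiasis: hepatic side effect score for cholelithiasis, drawn from the DILIps training data for predicting drug-induced liver injury; call rule not given here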;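 for HepSE cirrhosis: cirrhosis hepatic side effect score taken from the DILIps (drug-induced liver injury prediction) training set; call rule not given here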;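 for HepSE elevated liver function tests: hepatic side effect score for raised liver function tests, as recorded in the DILIps training set used for predicting drug-induced liver injury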; for HepSE hepatic failure: call rule not given here
[5] = tested on: Hepatotoxicity; remark: listed apart in the source; for HepSE hepatic failure: call rule not given here
[6] = tested on: Hepatotoxicity; remark: listed apart in the source; for HepSE hepatic failure: call rule not given here
[7] = tested on: Hepatotoxicity; remark: listed apart in the source
[8] = tested on: Hepatotoxicity; remark: listed apart in the source
[9] = tested on: Hepatotoxicity; remark: listed apart in the source
[10] = tested on: Hepatotoxicity; remark: listed apart in the source
[11] = tested on: Hepatotoxicity; remark: listed apart in the source
[12] = tested on: Hepatotoxicity; remark: listed apart in the source
[13] = tested on: Hepatotoxicity; remark: listed apart in the source
[14] = tested on: Hepatotoxicity; remark: listed apart in the source

O=C1NC(=O)C(c2ccccc2)(c2ccccc2)N1 [PHENYTOIN]
HepSE_bilirubinemia ([1]; Liver): 0 | HepSE_cholecystitis ([2]; Liver): 0 | HepSE_cholelithiasis ([3]; Liver): 0 | HepSE_cirrhosis ([4]; Liver): 0 | HepSE_elevated liver function tests ([5]; Liver): 0 | HepSE_hepatic failure ([6]; Liver): 0 | HepSE_hepatic necrosis ([7]; Liver): 0 | HepSE_hepatitis ([8]; Liver): 1 | HepSE_hepatomegaly ([9]; Liver): 0 | HepSE_jaundice ([10]; Liver): 0 | HepSE_liver disease ([11]; Liver): 0 | HepSE_liver fatty ([12]; Liver): 0 | HepSE_liver function tests abnormal ([13]; Liver): 0 | HepSE_Combined Scores ([14]; Liver): 1

CCCC(C)C1(CC)C(=O)NC(=O)NC1=O (configuration not stated) [PENTOBARBITAL]
HepSE_bilirubinemia [1]: 0 | HepSE_cholecystitis [2]: 0 | HepSE_cholelithiasis [3]: 0 | HepSE_cirrhosis [4]: 0 | HepSE_elevated liver function tests [5]: 0 | HepSE_hepatic failure [6]: 0 | HepSE_hepatic necrosis [7]: 0 | HepSE_hepatitis [8]: 0 | HepSE_hepatomegaly [9]: 0 | HepSE_jaundice [10]: 0 | HepSE_liver disease [11]: 0 | HepSE_liver fatty [12]: 0 | HepSE_liver function tests abnormal [13]: 0 | HepSE_Combined Scores [14]: 0

CN1CCC(=C2c3ccccc3CCc3sccc32)CC1 [PIZOTYLINE]
HepSE_bilirubinemia [1]: 0 | HepSE_cholecystitis [2]: 0 | HepSE_cholelithiasis [3]: 0 | HepSE_cirrhosis [4]: 0 | HepSE_elevated liver function tests [5]: 0 | HepSE_hepatic failure [6]: 0 | HepSE_hepatic necrosis [7]: 0 | HepSE_hepatitis [8]: 0 | HepSE_hepatomegaly [9]: 0 | HepSE_jaundice [10]: 0 | HepSE_liver disease [11]: 0 | HepSE_liver fatty [12]: 0 | HepSE_liver function tests abnormal [13]: 0 | HepSE_Combined Scores [14]: 0

COc1ccc(-c2ccc3cc(C(=O)O)ccc3c2)cc1C12CC3CC(CC(C3)C1)C2
HepSE_bilirubinemia [1]: 0 | HepSE_cholecystitis [2]: 0 | HepSE_cholelithiasis [3]: 0 | HepSE_cirrhosis [4]: 0 | HepSE_elevated liver function tests [5]: 0 | HepSE_hepatic failure [6]: 0 | HepSE_hepatic necrosis [7]: 0 | HepSE_hepatitis [8]: 1 | HepSE_hepatomegaly [9]: 0 | HepSE_jaundice [10]: 0 | HepSE_liver disease [11]: 0 | HepSE_liver fatty [12]: 0 | HepSE_liver function tests abnormal [13]: 0 | HepSE_Combined Scores [14]: 1

CN(N=O)C(=O)N[C@@H](C=O)[C@@H](O)[C@H](O)[C@H](O)CO [STREPTOZOCIN]
HepSE_bilirubinemia [1]: 0 | HepSE_cholecystitis [2]: 0 | HepSE_cholelithiasis [3]: 0 | HepSE_cirrhosis [4]: 0 | HepSE_elevated liver function tests [5]: 0 | HepSE_hepatic failure [6]: 0 | HepSE_hepatic necrosis [7]: 0 | HepSE_hepatitis [8]: 0 | HepSE_hepatomegaly [9]: 0 | HepSE_jaundice [10]: 0 | HepSE_liver disease [11]: 0 | HepSE_liver fatty [12]: 0 | HepSE_liver function tests abnormal [13]: 0 | HepSE_Combined Scores [14]: 0

C[C@]12C=CC(=O)N[C@@H]1CC[C@@H]1[C@@H]2CC[C@]2(C)[C@@H](C(=O)Nc3cc(C(F)(F)F)ccc3C(F)(F)F)CC[C@@H]12 [DUTASTERIDE]
HepSE_bilirubinemia [1]: 0 | HepSE_cholecystitis [2]: 0 | HepSE_cholelithiasis [3]: 0 | HepSE_cirrhosis [4]: 0 | HepSE_elevated liver function tests [5]: 0 | HepSE_hepatic failure [6]: 0 | HepSE_hepatic necrosis [7]: 0 | HepSE_hepatitis [8]: 0 | HepSE_hepatomegaly [9]: 0 | HepSE_jaundice [10]: 0 | HepSE_liver disease [11]: 0 | HepSE_liver fatty [12]: 0 | HepSE_liver function tests abnormal [13]: 0 | HepSE_Combined Scores [14]: 0

CCCc1nc(C)c2c(=O)[nH]c(-c3cc(S(=O)(=O)N4CCN(CC)CC4)ccc3OCC)nn12
HepSE_bilirubinemia [1]: 0 | HepSE_cholecystitis [2]: 0 | HepSE_cholelithiasis [3]: 0 | HepSE_cirrhosis [4]: 0 | HepSE_elevated liver function tests [5]: 0 | HepSE_hepatic failure [6]: 0 | HepSE_hepatic necrosis [7]: 0 | HepSE_hepatitis [8]: 0 | HepSE_hepatomegaly [9]: 0 | HepSE_jaundice [10]: 0 | HepSE_liver disease [11]: 0 | HepSE_liver fatty [12]: 0 | HepSE_liver function tests abnormal [13]: 1 | HepSE_Combined Scores [14]: 1

CN[C@@H]1CCc2[nH]c3ccc(C(N)=O)cc3c2C1 [FROVATRIPTAN]
HepSE_bilirubinemia [1]: 0 | HepSE_cholecystitis [2]: 0 | HepSE_cholelithiasis [3]: 0 | HepSE_cirrhosis [4]: 0 | HepSE_elevated liver function tests [5]: 0 | HepSE_hepatic failure [6]: 0 | HepSE_hepatic necrosis [7]: 0 | HepSE_hepatitis [8]: 0 | HepSE_hepatomegaly [9]: 0 | HepSE_jaundice [10]: 0 | HepSE_liver disease [11]: 0 | HepSE_liver fatty [12]: 0 | HepSE_liver function tests abnormal [13]: 0 | HepSE_Combined Scores [14]: 0

VITAMIN B12
HepSE_bilirubinemia [1]: 0 | HepSE_cholecystitis [2]: 0 | HepSE_cholelithiasis [3]: 0 | HepSE_cirrhosis [4]: 0 | HepSE_elevated liver function tests [5]: 0 | HepSE_hepatic failure [6]: 0 | HepSE_hepatic necrosis [7]: 0 | HepSE_hepatitis [8]: 0 | HepSE_hepatomegaly [9]: 0 | HepSE_jaundice [10]: 0 | HepSE_liver disease [11]: 0 | HepSE_liver fatty [12]: 0 | HepSE_liver function tests abnormal [13]: 0 | HepSE_Combined Scores [14]: 0

C[C@]12C/C(=C/O)C(=O)C[C@@H]1CC[C@@H]1[C@@H]2CC[C@@]2(C)[C@H]1CC[C@]2(C)O [OXYMETHOLONE]
HepSE_bilirubinemia [1]: 0 | HepSE_cholecystitis [2]: 0 | HepSE_cholelithiasis [3]: 0 | HepSE_cirrhosis [4]: 0 | HepSE_elevated liver function tests [5]: 0 | HepSE_hepatic failure [6]: 0 | HepSE_hepatic necrosis [7]: 1 | HepSE_hepatitis [8]: 0 | HepSE_hepatomegaly [9]: 0 | HepSE_jaundice [10]: 1 | HepSE_liver disease [11]: 0 | HepSE_liver fatty [12]: 0 | HepSE_liver function tests abnormal [13]: 0 | HepSE_Combined Scores [14]: 2

O=c1[nH]c(=O)n([C@H]2C[C@H](O)[C@@H](CO)O2)cc1C(F)(F)F [TRIFLURIDINE]
HepSE_bilirubinemia [1]: 0 | HepSE_cholecystitis [2]: 0 | HepSE_cholelithiasis [3]: 0 | HepSE_cirrhosis [4]: 0 | HepSE_elevated liver function tests [5]: 0 | HepSE_hepatic failure [6]: 0 | HepSE_hepatic necrosis [7]: 0 | HepSE_hepatitis [8]: 0 | HepSE_hepatomegaly [9]: 0 | HepSE_jaundice [10]: 0 | HepSE_liver disease [11]: 0 | HepSE_liver fatty [12]: 0 | HepSE_liver function tests abnormal [13]: 0 | HepSE_Combined Scores [14]: 0

O=C(O)Cc1ccccc1Nc1c(Cl)cccc1Cl [DICLOFENAC]
HepSE_bilirubinemia ([1]; Liver): 0 | HepSE_cholecystitis ([2]; Liver): 0 | HepSE_cholelithiasis ([3]; Liver): 0 | HepSE_cirrhosis ([4]; Liver): 1 | HepSE_elevated liver function tests ([5]; Liver): 0 | HepSE_hepatic failure ([6]; Liver): 1 | HepSE_hepatic necrosis ([7]; Liver): 1 | HepSE_hepatitis ([8]; Liver): 1 | HepSE_hepatomegaly ([9]; Liver): 0 | HepSE_jaundice ([10]; Liver): 1 | HepSE_liver disease ([11]; Liver): 0 | HepSE_liver fatty ([12]; Liver): 0 | HepSE_liver function tests abnormal ([13]; Liver): 0 | HepSE_Combined Scores ([14]; Liver): 5

CCCNC(C)C(=O)Nc1c(C)csc1C(=O)OC (configuration not stated) [ARTICAINE]
HepSE_bilirubinemia [1]: 0 | HepSE_cholecystitis [2]: 0 | HepSE_cholelithiasis [3]: 0 | HepSE_cirrhosis [4]: 0 | HepSE_elevated liver function tests [5]: 0 | HepSE_hepatic failure [6]: 0 | HepSE_hepatic necrosis [7]: 0 | HepSE_hepatitis [8]: 0 | HepSE_hepatomegaly [9]: 0 | HepSE_jaundice [10]: 0 | HepSE_liver disease [11]: 0 | HepSE_liver fatty [12]: 0 | HepSE_liver function tests abnormal [13]: 0 | HepSE_Combined Scores [14]: 0
